From patent publication US7202069B2, “(R)-2-octanol dehydrogenases, methods for producing the enzymes, DNA encoding the enzymes, and methods for producing alcohols using the enzymes” (Daicel Chemical Industries, Ltd., priority 2000, dated 2007)
Like-named read-outs stand apart in the source and are kept apart here.

Legend:
Assay type in all cases: biochemical, Pichia finlandica
[1] = tested on: (R)-2-octanol dehydrogenase; assay: Oxidation activity of (R)-2-octanol dehydrogenase on various alcohols, NAD+ as coenzyme; conditions: oxidation activity of (R)-2-octanol taken as 100; NAD+ as coenzyme
Method: (§1) On the other hand, oxidation activity on (R)-2-octanol can be measured as follows. The activity can be validated by incubating at 30° C. the reaction mixture containing Tris-HCl buffer (pH 8.5, 50 mM), 2.5 mM NAD^+, 5 mM (R)-2-octanol, and the enzyme and by measuring increase of absorbance at 340 nm accompanying generation of NADH. 1 U was defined as the amount of the enzyme catalyzing generation of 1 μmol of NADH for 1 minute.
The (R)-2-octanol dehydrogenase was reacted with various alcohols and its oxidation activity was measured.

[2] = tested on: (R)-2-octanol dehydrogenase; assay: Reduction activity of the enzyme of Example 3 on various ketones, NADH as coenzyme; conditions: reduction activity of 4-chloroacetoacetic acid ethyl ester taken as 100; NADH as coenzyme
Method: In the present invention, reduction activity on 4-chloroacetoacetic acid ester can be measured as follows. The activity can be validated by incubating at 30° C. the reaction mixture containing potassium phosphate buffer (pH 6.5, 100 mM), 0.2 mM NADH, 20 mM ethyl 4-chloroacetoacetate, and the enzyme and by measuring decrease of absorbance at 340 nm accompanying decrease of NADH. 1 U was defined as the amount of the enzyme catalyzing decrease of 1 μmol of NADH for 1 minute. Quantification of proteins can be done by dye binding method using the protein assay kit (BIORAD).
The enzyme of Example 3 was reacted with various ketones and its reduction activity was measured.

[3] = tested on: (R)-2-octanol dehydrogenase; assay: Residual (R)-2-octanol dehydrogenase activity after treatment with reagents
Method: The (R)-2-octanol dehydrogenase was treated with various reagents at 30° C. for 30 minutes and the (R)-2-octanol dehydrogenase activity was measured.

[4] = tested on: (R)-2-octanol dehydrogenase; assay: Activation of (R)-2-octanol dehydrogenase by reagents; conditions: for Relative activity: reagent 1 mM, activity without reagents = 100
Method: The activation effect of (R)-2-octanol dehydrogenase in various reagents was measured.

[5] = (R)-2-octanol oxidation activity of the purified enzyme (specific activity, optimum pH, optimum temperature); conditions: after Superdex 200 gel filtration
Method: as §1
The highest specific activity of the purified enzyme was about 91 U/mg-protein which is the activity of oxidizing (R)-2-octanol.
We examined (R)-2-octanol dehydrogenase activity of the enzyme obtained from Example 3 changing pH by using phosphate buffer (KPB), Tris-HCl buffer, Glycine buffer. […] As a result, the optimum pH of the enzyme was from 8.0 to 11.0.
We examined (R)-2-octanol oxidation activity of the enzyme obtained from Example 3 changing only temperature in the standard reaction conditions. […] As a result, the optimum temperature of the enzyme was from 45 to 55.

[6] = reagent 1 mM, 30° C. for 30 minutes, enzyme treated without reagents = 100
[7] = reagent 0.01 mM, 30° C. for 30 minutes, enzyme treated without reagents = 100
[8] = treated at 30° C. for 30 minutes

CCOC(=O)C[C@@H](C)O [Ethyl (R)-3-hydroxybutyrate]
relative activity, oxidation reaction [1]: 41.1

CCOC(=O)C[C@@H](O)CCl [Ethyl (R)-4-chloro-3-hydroxybutyrate]
relative activity, oxidation reaction [1]: 0.172

CCOC(=O)C[C@H](C)O [Ethyl (S)-3-hydroxybutyrate]
relative activity, oxidation reaction [1]: 1.03

CCOC(=O)C[C@H](O)CCl [Ethyl (S)-4-chloro-3-hydroxybutyrate]
relative activity, oxidation reaction [1]: 2.24

CCOC(=O)CC(C)=O [Ethyl acetoacetate]
relative activity, reduction reaction [2]: 106

[Cl][Fe][Cl] [FeCl2]
Residual activity [3, 6]: 93%

[Cl][Hg][Cl] [HgCl2, mercury chloride]
Residual activity [3, 7]: 62%
effect of reagent on the enzyme (inhibition / stabilization), in words [3, 8]: slightly inhibited

[Cl-].[K+] [KCl]
Residual activity [3, 6]: 106%

[Cl-].[Cl-].[Mg+2] [MgCl2Ñ6H2O, magnesium chloride]
Relative activity [4]: 122%
Residual activity [3]: 185%
effect of reagent on the enzyme (inhibition / stabilization), in words [3]: stabilized

O=S(=O)([O-])[O-].[Mg+2] [MgSO4]
Relative activity [4]: 125%

CCN1C(=O)C=CC1=O [N-ethylmaleimide]
Residual activity [3, 6]: 147%
effect of reagent on the enzyme (inhibition / stabilization), in words [3, 8]: stabilized

Cl.NO [NH2OHÑHCl]
Residual activity [3, 7]: 99%

O.O.O.O.O.O.[Cl][Ni][Cl] [NiCl2Ñ6H2O]
Residual activity [3, 6]: 103%

O=S(=O)(F)Cc1ccccc1 [Phenylmethylsulfonyl fluoride]
Residual activity [3, 6]: 111%

CCC=O [Propionaldehyde]
relative activity, reduction reaction [2]: 18.4

O=c1c(O)c(-c2ccc(O)c(O)c2)oc2cc(O)cc(O)c12 [Quercetin]
Residual activity ([3]; reagent 0.1 mM, 30° C. for 30 minutes, enzyme treated without reagents = 100): 99%

[Cl-].[Cl-].[Zn+2] [ZnCl2]
Relative activity [4]: 105%
Residual activity [3, 6]: 96%

O.O.O.O.O.O.O.O=S(=O)([O-])[O-].[Zn+2] [ZnSO4Ñ7H2O]
Relative activity [4]: 110%

[Mg] [magnesium]
activation of the enzyme, in words [4]: activated

[Mn+2] [manganese]
activation of the enzyme, in words [4]: activated

c1cnc2c(c1)ccc1cccnc12 [o-Phenanthroline]
Residual activity [3, 6]: 162%
effect of reagent on the enzyme (inhibition / stabilization), in words [3, 8]: stabilized

O=S(=O)(O)O [sulphate ion]
activation of the enzyme, in words [4]: activated

[Zn+2] [zinc]
activation of the enzyme, in words [4]: activated

(R)-2-butanol
relative activity, oxidation reaction [1]: 49.3

(S)-2-butanol
relative activity, oxidation reaction [1]: 7.31

MnSO4Ñ4-5H2O
Relative activity [4]: 121%

manganese chloride [MnCl2Ñ4H2O]
Relative activity [4]: 114%
Residual activity [3, 6]: 185%
effect of reagent on the enzyme (inhibition / stabilization), in words [3, 8]: stabilized

B1: (R)-2-octanol dehydrogenase from Pichia finlandica: NAD+-dependent (R)-2-octanol dehydrogenase purified from Pichia finlandica DSM 70280; amino acid sequence SEQ ID NO:2 (protein, listed as Pichia finlandica)
chain: MSYNFHNKVAVVTGALSGIGLSVAKKFLQLGAKVTISDVSGEKKYHETVVALKAQNLNTDNLHYVQADSSKEEDNKKLISETLATFGGLDIVCANAGIGKFAPTHETPFDVWKKVIAVNLNGVFLLDKLAINYWLEKSKPGVIVNMGSVHSFVAAPGLAHYGAAKGGVKLLTQTLALEYASHGIRVNSVNPGYISTPLIDEVPKERLDKLVSLHPIGRLGRPEEVADAVAFLCSQEATFINGVSLPVDGGYTAQ
highest specific activity of the purified enzyme, oxidizing (R)-2-octanol [5]: about 91 U/mg-protein
